The values that follow come from patent US5811463A, “Compositions and method for relaxing smooth muscles” (University of British Columbia, priority 1996, dated 1998).

The subject of data set [1] is phenylephrine pre-constricted rat aortic rings. As to the kind of experiment: Relaxation of phenylephrine pre-constricted rat aortic rings in vitro. Details: species or system rat (Sprague-Dawley). The conditions noted are these: phenylephrine 10^-6 M pre-constricted rat aortic rings; for EC50: read-out: In vitro EC50 (effective concentration to produce a 50% relaxation response). From the text: As noted above, the present invention also provides methods for relaxing smooth muscle in a warm-blooded animal (e.g., humans, chimps, cows, goats, pigs, dogs, cats, rats or mice) comprising the step of administering to the animal a therapeutically effective amount of a transition-metal nitrosyl complex as described above. Briefly, the efficacy (and therapeutically effective amount) of a particular transition-metal nitrosyl complex may be readily determined by both in vitro and in vivo techniques. See generally Blattner et al., Experiments on Isolated Smooth Muscle Preparations, Hugo Sachs Elektronik KG, 1980 (incorporated herein by reference in its entirety). For example, within one embodiment, a small animal such as a rat, rabbit, or guinea-pig is sacrificed and exsanguinated. The required tissue (e.g., artery, vein, stomach, ileum, jejunum, caecum, colon, uterus, spleen, trachea, seminal vesicle, ductus deferens, or corpus cavernosum) is removed and placed in an oxygenated physiological solution (e.g., Krebs or Tyrode solution). This tissue is then cut such that one end is attached to the bottom of a muscle bath, and the other end to a force-displacement transducer (for example, Grass FT-03-C, Quincy, Mass.) for isometric recording with a physiological recorder (Grass, Model 79G). An appropriate pre-load (0.5 to 10 grams, depending on the tissue) is then applied, and the tissue equilibrated in the bath for one hour prior to the start of the study.
The measurement of smooth muscle contractile response may then be performed essentially as described by Pang and Sutter in Blood Vessels 17:293-301, 1980 (incorporated herein by reference in its entirety). Briefly, a dose-response curve of an agonist (e.g., phenylephrine, norepinephrine) is first obtained by measuring contractile response of the muscle as a function of agonist concentration. Response to the agonist is then measured beginning with the addition of the lowest dose of agonist to the bath. Each dose is equilibrated in the bath for 2 to 6 minutes in order to assure a steady state response, prior to proceeding to the next higher dose.
Measurement of the effectiveness of smooth muscle relaxant compositions may then be determined by measurement of the smooth muscle relaxation response, in a manner analogous to contractile response. See generally Wang, Poon and Pang, J. Pharm. Exp. Ther. 265:112-119, 1993 (incorporated herein by reference in its entirety). Briefly, tissue is first contracted with an agonist such as phenylephrine, usually at a concentration which results in 90% of the tissue's maximum contractile response (referred to EC90). At the steady state phase of the contractile response to the agonist, a cumulative dose-response curve for the smooth muscle relaxant may be determined. For each concentration of relaxant, a steady state is achieved and the relaxation response measured. […] For example, the EC50 of a relaxant is the effective concentration of the relaxant required to relax a pre-contracted muscle to 50% of its maximum contractile response.
(§1) Examples 5-7 present in vitro and in vivo results of the evaluation of the efficiency of the transition-metal nitrosyl complexes in relaxing blood vessels and lowering blood pressure. Sprague-Dawley rats (300-400g) were used for all experiments. Each group consisted of 1-6 rats for the in vivo experiments and 3-6 aortic rings for the in vitro experiments. Each aortic ring was from a different rat.
Example 5 presents the results of the evaluation of the efficacy of the transition metal nitrosyl complexes in blood vessel relaxation. In these in vitro experiments, phenylephrine pre-constricted rat aortae were subjected to increasing doses of the transition-metal nitrosyl complexes, and the relaxation of the rat aortae measured. […]

For data set [2], the system named is mean arterial pressure in conscious rats. Put plainly: Depression of mean arterial pressure in conscious rats in vivo. Further details: species or system rat (Sprague-Dawley). The conditions noted are these: intravenous bolus. On the procedure: Likewise, in vivo tests may also be readily developed and utilized in order to determine the efficacy (and therapeutically effective amount) of the transition-metal nitrosyl complexes described above. For example, within one aspect of the present invention, a series of transition-metal nitrosyl complexes were tested in vivo for their ability to reduce the mean arterial blood pressure of conscious rats in vivo. Briefly, as described in greater detail below in Example 6, conscious, unrestrained rats were intravenous bolus injected with the transition-metal nitrosyl complexes. Five of the complexes were determined to dose-dependently reduce mean arterial pressure with maximum depressor effects which ranged from -36 to -59 mm Hg. Maximum depressor effects of sodium nitroprusside and nitroglycerin under similar conditions were -58 and -56 mm Hg, respectively. […] The results of the effects of the transition-metal nitrosyl complexes on the depression of mean arterial pressure in conscious rats in vivo are summarized in Example 5 and Table 1.
as §1
Example 6 describes the results of the determination of the efficacy of the transition-metal nitrosyl complexes in reducing blood pressure of conscious, unrestrained rats. In these in vivo experiments, the depression of rat arterial pressure was measured as a function of transition-metal nitrosyl complex dose. Dose-response (pressure depression) curves were constructed and the capacities of the transition-metal nitrosyl complexes to reduce arterial pressure were compared and related to nitroglycerin and sodium nitroprusside. The results of these experiments are reported in terms of ED50 (effective dose to produce a 50% pressure depression response) and Emax (maximum decrease in blood pressure) and are summarized in Example 5, Table 1.
(§2) The rats were anaesthetized with halothane (4% in air for induction and 1.5% in air for surgery). A polyethylene cannula (PE50) was inserted into the left iliac artery for the measurement of mean arterial pressure (MAP) by a pressure transducer (P23DB, Gould Statham, Calif.). A PE50 cannula was also inserted into the iliac vein for the administration of the vehicle or a drug. The rats were then put into a small cage and given>6 hr to recover from the effects of anaesthesia and surgery before use. The rats were allowed to move freely during the recovery phase as well as during the conduction of the experiments as described in Wang and Pang, Br. J. Pharmacol. 103:2004-8, 1991. Only one dose-response curve of a metal nitrosyl complex, sodium nitroprusside, nitroglycerin or vehicle (0.9% NaCl solution or dimethylsulfoxide solution) was constructed in each rat. All drugs or vehicle were intravenous bolus injected at dose-intervals of 3-7 min, to allow the recovery of depressor responses, before the injection of the next higher dose.

Data set [3] concerns conscious rats. Put plainly: Toxic dose (convulsion / death) in conscious rats in vivo. Further details: species or system rat (Sprague-Dawley); unit not given here. The conditions noted are these: intravenous bolus; for Toxic dose: dose which caused neither convulsion nor death: footnote c; for Toxic dose: dose which caused convulsion: footnote a.
Text: as §1
^a denotes dose which caused convulsion
^b denotes dose which caused death
^c denotes dose which caused neither convulsion nor death.
as §2

For data set [4], the system named is phenylephrine-preconstricted rat aortic rings. As to the kind of experiment: Tolerance: relaxation of rat aortic rings after pre-incubation with CpCr(NO)2 Cl or nitroglycerin. Details: species or system rat (Sprague-Dawley). Conditions: 1 h.
Text: In addition to determining efficacy of transition-metal nitrosyl complexes in either in vitro or in vivo tests, it is also generally preferably to determine whether the composition induces tolerance. For example, within one embodiment of the invention, induction of tolerance by the transition-metal nitrosyl complex described above may be readily determined by exposing rat aortic rings to a transition-metal nitrosyl complex prior to relaxation determinations. More specifically, as described in greater detail 10 below in Example 7, intact rat aortic rings were pre-incubated with a typical transition- metal nitrosyl complex for one hour prior to examination of its concentration-relaxation effect in phenylephrine-preconstricted conditions. Unlike the relaxation response of nitroglycerin, the relaxation response of the transition-metal nitrosyl complexes was not diminished by pre-exposure of the aortic ring to the complex.
as §1
Example 7 presents the results of pre-exposing the rat aortae to the transition-metal nitrosyl complexes to evaluate the development of tolerance. In these experiments, the rat aortic rings were pretreated with a transition-metal nitrosyl complex prior to the measurement of dose-dependent relaxation as described above in Example 5.
In this study, the vehicles, CpCr(NO)2 Cl (10^-6 M), or nitroglycerin (3×10^-4 M) was added to the baths for 1 h, followed by the washout of drug or vehicle, preconstriction with phenylephrine and the construction of a concentration-relaxation curve of CpCr(NO)2 Cl.

Data set [5] relates to blood vessels. Conditions: cited from earlier work.
Setting [6] is: pre-incubation nitroglycerin 3×10^-4 M.

Molecules are shown by their SMILES.

For `O=[N][Fe]1([N]=O)[I][Fe]([N]=O)([N]=O)[I]1` [[Fe(NO)2 I]2, Iodo(dinitrosyl)iron Dimer], in data set [1], the “In vitro Emax (percent relaxation of phenylephrine-induced contraction)” value is reported as -108% and the EC50 is 20000 nM. In addition, in data set [2], the “In vivo ED50 (effective dose to produce a 50% pressure depression response)” value worked out at 0.554 mg/kg and the “In vivo Emax (maximum decrease in blood pressure)” value was -51 mmHg. The “Toxic dose: dose which caused neither convulsion nor death” value in data set [3] turned out to be 5120.
Consider `O=[N][W+].[C-]#[O+].[C-]#[O+].c1cc[cH-]c1` [CpW(NO)(CO)2, dicarbonyl(.eta.^5 -cyclopentadienyl)nitrosyltungsten], for which, in data set [1], the “In vitro Emax (percent relaxation of phenylephrine-induced contraction)” value is reported as -107% and the EC50 worked out at 2500 nM. Further, in data set [2] (biphasic denotes depressor followed by pressor response), the “In vivo Emax (maximum decrease in blood pressure), in words” value is given as “biphasic”. Besides, the “Toxic dose: dose which caused convulsion” value in data set [3] is reported as 500.
On to `C1CCNCC1.O=[N][Cr+][I].c1cc[cH-]c1` [CpCr(NO)(pip)I], for which, in data set [1], the “In vitro Emax (percent relaxation of phenylephrine-induced contraction)” value is -110% and the EC50 worked out at 450 nM.
`O=[N][W+]([Cl])[N]=O.c1cc[cH-]c1` [CpW(NO)2 Cl]: in data set [1], the “In vitro Emax (percent relaxation of phenylephrine-induced contraction)” value is -122% and the EC50 came to 2000 nM. In data set [2], the “In vivo ED50 (effective dose to produce a 50% pressure depression response)” value stood at 2.976 mg/kg and the “In vivo Emax (maximum decrease in blood pressure)” value is reported as -36 mmHg. In addition, the “Toxic dose: dose which caused neither convulsion nor death” value in data set [3] is reported as 40,000.
On to `O=N[O][Cr+]([N]=O)[N]=O.c1cc[cH-]c1` [CpCr(NO)2 (ONO), Nitrito(.eta.^5 -cyclopentadienyl)dinitrosylchromium], for which, in data set [1], the “In vitro Emax (percent relaxation of phenylephrine-induced contraction)” value is given as -98% and the EC50 was determined as 100 nM. Moreover, in data set [2], the “In vivo ED50 (effective dose to produce a 50% pressure depression response)” value came to 0.0015 mg/kg and the “In vivo Emax (maximum decrease in blood pressure)” value was -45 mmHg. The “Toxic dose: dose which caused convulsion” value in data set [3] is listed as 1280.
With `O=[N][Mo+]([Cl])[N]=O.c1cc[cH-]c1` [CpMo(NO)2 Cl, chloro(.eta.^5 -cyclopentadienyl)nitrosylmolybdenum], in data set [1], the “In vitro Emax (percent relaxation of phenylephrine-induced contraction)” value was -113% and the EC50 worked out at 17000 nM. Also, in data set [2], the “In vivo ED50 (effective dose to produce a 50% pressure depression response)” value was 0.4 mg/kg and the “In vivo Emax (maximum decrease in blood pressure)” value was -59 mmHg. Moreover, in data set [3] (footnote b), the “Toxic dose: dose which caused death” value is reported as 25,600.
Turning to `O=[N][Cr+]([Cl])[N]=O.c1cc[cH-]c1` [CpCr(NO)2 Cl], in data set [1], the “In vitro Emax (percent relaxation of phenylephrine-induced contraction)” value is -118% and the EC50 came to 110 nM. The “effect of pre-incubation with CpCr(NO)2 Cl on EC50 and Emax” value in data set [4] (pre-incubation CpCr(NO)2 Cl 10^-6 M) is reported as “did not alter the EC50 or Emax”. Also, the “effect of pre-incubation with nitroglycerin on EC50 and Emax” value in data set [4] (pre-incubation nitroglycerin 3×10^-4 M, cross-tolerance) is “did not alter the EC50 or Emax”. For the same compound, in data set [2], the “In vivo ED50 (effective dose to produce a 50% pressure depression response)” value came to 0.0044 mg/kg and the “In vivo Emax (maximum decrease in blood pressure)” value is -42 mmHg. Moreover, in data set [3], the “Toxic dose: dose which caused convulsion” value is listed as 2,000.
As for `O=[N+]([O-])OCC(CO[N+](=O)[O-])O[N+](=O)[O-]` [Nitroglycerin, glyceryl trinitrate, reference compound], the EC50 in data set [1] amounted to 300 nM. For the same compound, the Emax (in general, the greatest response seen or fitted, relative to the assay's reference) in data set [1] (read-out: In vitro Emax (percent relaxation of phenylephrine-induced contraction)) was -104%. The “tolerance on continual exposure” value in data set [5] is reported as “reduction in the ability of these compounds to vasodilate blood vessels”. Moreover, in data set [4] (setting [6]), the “effect of pre-incubation with nitroglycerin on EC50” value is on record as “EC50 significantly increased” and the “effect of pre-incubation with nitroglycerin on Emax” value is given as “Emax unaltered”. In data set [2] (Rattus norvegicus, read-out: In vivo ED50 (effective dose to produce a 50% pressure depression response)), the 50% effective dose (ED50) – broadly, the dose at which the effect has come halfway, by size or by number of responders – is 0.2 mg/kg. For the same compound, in data set [2], the “In vivo Emax (maximum decrease in blood pressure)” value was -56 mmHg and the maximum depressor effect was -56 mm Hg.
